In patent publication US20230263822A1, “MODULATION OF FACTOR 11 EXPRESSION” (Ionis Pharmaceuticals, Inc., priority 2008, published 2023):
Strand notation (5' to 3'): a small letter for the sugar, then the base; units joined by * are phosphorothioate-linked, units joined directly phosphodiester-linked; [ ] holds rarer units or linkages, { } end groups; capitals alone tell only the bases. e = 2'-O-(2-methoxyethyl) (MOE); [5mC] = 5-methylcytosine; d = 2'-deoxy (DNA)

Tests used:
human Factor 11 mRNA [1] = test: Dose-dependent inhibition of human Factor 11 in HepB3 cells, electroporation (Example 7); format: cell-based; settings: for percent inhibition of human Factor 11 mRNA relative to untreated control cells: ~16 hours
Procedure: The gapmers were also transfected via electroporation and their dose dependent inhibition of human Factor 11 mRNA was measured. Cells were plated at a density of 20,000 cells per well and transfected via electroporation with 41.15 nM, 123.457 nM, 370.37 nM, 1111.11 nM, 3333.33 nM, and 10,000 nM concentrations of antisense oligonucleotide, as specified in Table 15. After a treatment period of approximately 16 hours, RNA was isolated from the cells and human Factor 11 mRNA levels were measured by quantitative real-time PCR. Human Factor 11 primer probe set RTS 2966 was used to measure mRNA levels. Factor 11 mRNA levels were adjusted according to total RNA content, as measured by RIBOGREEN. Results are presented as percent inhibition of human Factor 11, relative to untreated control cells.

[2] = Tolerability in CD1 mice: organ weight (Example 33); format: in vivo; settings: 50 mg/kg s.c. twice a week, vs PBS control, normalized to body weight
Procedure: Three days after the last dose was administered to all groups, the mice were sacrificed.

[3] = Tolerability in Sprague-Dawley rats: body weight and organ weight (Example 35); format: in vivo; settings: 50 mg/kg s.c. twice per week for 6 weeks; for Percent change: Body weight: percent change over the weights at the start of the study; for Percent change in organ weight: Kidney / Percent change in organ weight: Liver / Percent change in organ weight: Spleen: vs saline control, normalized to body weight
Source text: Urine samples were taken before the start of treatment.
The body weights are presented in Table 71 and are expressed as a percent change over the weights taken at the start of the study.

human Factor 11 mRNA [4] = test: Dose-dependent inhibition of human Factor 11 in HepG2 cells, lipofectin 2.34-75 nM (Example 5); format: cell-based; settings: for percent inhibition of human Factor 11 mRNA relative to untreated control cells: ~16 hours
Procedure: Cells were plated at a density of 10,000 cells per well and transfected using lipofectin reagent with 2.34 nM, 4.69 nM, 9.375 nM, 18.75 nM, 37.5 nM, and 75 nM concentrations of antisense oligonucleotide, as specified in Table 11. After a treatment period of approximately 16 hours, RNA was isolated from the cells and human Factor 11 mRNA levels were measured by quantitative real-time PCR. Human Factor 11 primer probe set RTS 2966 was used to measure mRNA levels. Factor 11 mRNA levels were adjusted according to total RNA content, as measured by RIBOGREEN. Results are presented as percent inhibition of human Factor 11, relative to untreated control cells.

[5] = parameters: species or system CD1 mice; settings: mouse, in vivo
Procedure: Five mice from each group were sacrificed 3 days, 28 days and 56 days following the final dose. Livers were harvested for analysis.
The concentration of the full-length oligonucleotide as well as the total oligonucleotide concentration (including the degraded form) was measured. The method used is a modification of previously published methods (Leeds et al., 1996; Geary et al., 1999) which consist of a phenol-chloroform (liquid-liquid) extraction followed by a solid phase extraction. An internal standard (ISIS 355868, a 27-mer 2′-O-methoxyethyl modified phosphorothioate oligonucleotide, […], designated herein as SEQ ID NO: 270) was added prior to extraction. […] Half-lives were then calculated using WinNonlin software ([…]).
The results are presented in Tables 68 and 69, expressed as μg/g liver tissue.

Factor 11 protein = Factor 11 protein in monkey plasma by sandwich ELISA (Example 46); format: in vivo, cynomolgus monkeys; settings: for Inhibition of Factor 11 protein relative to the PBS control (percentage reduction): 25 mg/kg subcutaneously; for Factor 11 protein levels in plasma: cynomolgus monkeys, 25 mg/kg
Procedure: Groups, each consisting of two male and two female monkeys, were injected subcutaneously with 25 mg/kg of ISIS 416850, ISIS 449709, ISIS 445522, ISIS 449710, ISIS 449707, ISIS 449711, ISIS 449708, 416858, and ISIS 445531. Antisense oligonucleotide was administered to the monkeys at 25 mg/kg three times per week for week 1 and 25 mg/kg twice per week for weeks 2 to 8. A control group, consisting of two male and two female monkeys was injected subcutaneously with PBS according to the same dosing regimen. Body weights were taken 14 days and 7 days before the start of treatment and were then measured weekly throughout the treatment period. Blood samples were collected 14 days and 5 days before the start of treatment and subsequently several times during the dosing regimen for PT and aPTT measurements, and measurement of various hematologic factors. On day 55, the monkeys were euthanized by exsanguination while under deep anesthesia, and organs harvested for further analysis.
Plasma samples from all monkey groups taken on different days were analyzed by a sandwich-style ELISA assay (Affinity Biologicals Inc.) using an affinity-purified polyclonal anti-Factor 11 antibody as the capture antibody and a peroxidase-conjugated polyclonal anti-Factor 11 antibody as the detecting antibody. Monkey plasma was diluted 1:50 for the assay. Peroxidase activity was expressed by incubation with the substrate o-phenylenediamine. The color produced was quantified using a microplate reader at 490 nm and was considered to be proportional to the concentration of Factor 11 in the samples.
The results are presented in Table 147, expressed as percentage reduction relative to that of the PBS control.

416838 (antisense GCAACCGGGATGATGAGTGC; 5-10-5 gapmer, further chemistry not given here) [compound 416838]
IC50 (human Factor 11 mRNA [1]): 1200 nM | percent inhibition of human Factor 11 mRNA relative to untreated control cells (human Factor 11 mRNA [1]; 41.15 nM): 12% | percent inhibition of human Factor 11 mRNA relative to untreated control cells (human Factor 11 mRNA [1]; 123.457 nM): 9% | percent inhibition of human Factor 11 mRNA relative to untreated control cells (human Factor 11 mRNA [1]; 370.37 nM): 28% | percent inhibition of human Factor 11 mRNA relative to untreated control cells (human Factor 11 mRNA [1]; 1111.11 nM): 40% | percent inhibition of human Factor 11 mRNA relative to untreated control cells (human Factor 11 mRNA [1]; 3333.33 nM): 77% | percent inhibition of human Factor 11 mRNA relative to untreated control cells (human Factor 11 mRNA [1]; 10000 nM): 88% | Percent change in kidney weight ([2]; 2 weeks): −2% | Percent change in liver weight ([2]; 2 weeks): +8% | Percent change in spleen weight ([2]; 2 weeks): +21% | Percent change in kidney weight ([2]; 4 weeks): −12% | Percent change in liver weight ([2]; 4 weeks): −6% | Percent change in spleen weight ([2]; 4 weeks): −8% | Percent change in kidney weight ([2]; 6 weeks): −8% | Percent change in liver weight ([2]; 6 weeks): 0% | Percent change in spleen weight ([2]; 6 weeks): +9% | Percent change: Body weight [3]: −23% | Percent change in organ weight: Kidney [3]: −0.5% | Percent change in organ weight: Liver [3]: +8% | Percent change in organ weight: Spleen [3]: +212% | IC50 (human Factor 11 mRNA [4]): 10 nM | percent inhibition of human Factor 11 mRNA relative to untreated control cells (human Factor 11 mRNA [4]; 2.34 nM): 21% | percent inhibition of human Factor 11 mRNA relative to untreated control cells (human Factor 11 mRNA [4]; 4.69 nM): 37% | percent inhibition of human Factor 11 mRNA relative to untreated control cells (human Factor 11 mRNA [4]; 9.375 nM): 50% | percent inhibition of human Factor 11 mRNA relative to untreated control cells (human Factor 11 mRNA [4]; 18.75 nM): 63% | percent inhibition of human Factor 11 mRNA relative to untreated control cells (human Factor 11 mRNA [4]; 37.5 nM): 74% | percent inhibition of human Factor 11 mRNA relative to untreated control cells (human Factor 11 mRNA [4]; 75 nM): 83% | Half-Life in the liver [5]: 13 days

445531 (antisense eG*eG*e[5mC]*eA*eT*dT*dG*dG*dT*dG*d[5mC]*dA*d[5mC]*eA*eG*eT*eT*eT) [compound 445531]
Inhibition of Factor 11 protein relative to the PBS control (percentage reduction) (Factor 11 protein; Day 10, plasma): 9% | Inhibition of Factor 11 protein relative to the PBS control (percentage reduction) (Factor 11 protein; Day 17, plasma): 22% | Inhibition of Factor 11 protein relative to the PBS control (percentage reduction) (Factor 11 protein; Day 24, plasma): 23% | Inhibition of Factor 11 protein relative to the PBS control (percentage reduction) (Factor 11 protein; Day 31, plasma): 27% | Inhibition of Factor 11 protein relative to the PBS control (percentage reduction) (Factor 11 protein; Day 38, plasma): 29% | Inhibition of Factor 11 protein relative to the PBS control (percentage reduction) (Factor 11 protein; Day 45, plasma): 32% | Inhibition of Factor 11 protein relative to the PBS control (percentage reduction) (Factor 11 protein; Day 52, plasma): 32% | Inhibition of Factor 11 protein relative to the PBS control (percentage reduction) (Factor 11 protein; Day 55, plasma): 37% | Inhibition of Factor 11 protein relative to the PBS control (percentage reduction) (Factor 11 protein; Day −5, plasma): 1% | Inhibition of Factor 11 protein relative to the PBS control (percentage reduction) (Factor 11 protein; Day −14, plasma): 0%

416925 (antisense GGTGCACAGTTTCTGGCAGG; 3-14-3 gapmer chemistry, further chemistry not given here) [compound 416925]
IC50 (human Factor 11 mRNA [1]): 200 nM | percent inhibition of human Factor 11 mRNA relative to untreated control cells (human Factor 11 mRNA [1]; 41.15 nM): 27% | percent inhibition of human Factor 11 mRNA relative to untreated control cells (human Factor 11 mRNA [1]; 123.457 nM): 39% | percent inhibition of human Factor 11 mRNA relative to untreated control cells (human Factor 11 mRNA [1]; 370.37 nM): 50% | percent inhibition of human Factor 11 mRNA relative to untreated control cells (human Factor 11 mRNA [1]; 1111.11 nM): 73% | percent inhibition of human Factor 11 mRNA relative to untreated control cells (human Factor 11 mRNA [1]; 3333.33 nM): 88% | percent inhibition of human Factor 11 mRNA relative to untreated control cells (human Factor 11 mRNA [1]; 10000 nM): 96% | Percent change in kidney weight ([2]; 2 weeks): −4% | Percent change in liver weight ([2]; 2 weeks): +14% | Percent change in spleen weight ([2]; 2 weeks): −7% | Percent change in kidney weight ([2]; 4 weeks): −14% | Percent change in liver weight ([2]; 4 weeks): +14% | Percent change in spleen weight ([2]; 4 weeks): +33% | Percent change in kidney weight ([2]; 6 weeks): −2% | Percent change in liver weight ([2]; 6 weeks): +33% | Percent change in spleen weight ([2]; 6 weeks): +78% | Percent change: Body weight [3]: −32% | Percent change in organ weight: Kidney [3]: +48% | Percent change in organ weight: Liver [3]: +44% | Percent change in organ weight: Spleen [3]: +371% | IC50 (human Factor 11 mRNA [4]): 13 nM | percent inhibition of human Factor 11 mRNA relative to untreated control cells (human Factor 11 mRNA [4]; 2.34 nM): 24% | percent inhibition of human Factor 11 mRNA relative to untreated control cells (human Factor 11 mRNA [4]; 4.69 nM): 34% | percent inhibition of human Factor 11 mRNA relative to untreated control cells (human Factor 11 mRNA [4]; 9.375 nM): 45% | percent inhibition of human Factor 11 mRNA relative to untreated control cells (human Factor 11 mRNA [4]; 18.75 nM): 56% | percent inhibition of human Factor 11 mRNA relative to untreated control cells (human Factor 11 mRNA [4]; 37.5 nM): 67% | percent inhibition of human Factor 11 mRNA relative to untreated control cells (human Factor 11 mRNA [4]; 75 nM): 72% | Half-Life in the liver [5]: 12 days

ISIS 445522: 5-8-5 or 6-8-6 MOE microwalk gapmer (Table 44) (antisense eG*e[5mC]*eA*e[5mC]*eA*dG*dT*dT*dT*d[5mC]*dT*dG*dG*e[5mC]*eA*eG*eG*e[5mC])
Factor 11 protein levels in plasma (Factor 11 protein): time-dependent decrease in protein levels

ISIS 449709: 3-8-3, 4-8-4, 2-10-2, 3-10-3 or 4-10-4 MOE microwalk gapmer (Table 46) (antisense eG*e[5mC]*eA*e[5mC]*dA*dG*dT*dT*dT*d[5mC]*dT*dG*dG*d[5mC]*eA*eG*eG*e[5mC])
Factor 11 protein levels in plasma (Factor 11 protein): time-dependent decrease in protein levels

445522 (antisense eG*e[5mC]*eA*e[5mC]*eA*dG*dT*dT*dT*d[5mC]*dT*dG*dG*e[5mC]*eA*eG*eG*e[5mC]) [compound 445522]
Inhibition of Factor 11 protein relative to the PBS control (percentage reduction) (Factor 11 protein; Day 10, plasma): 36% | Inhibition of Factor 11 protein relative to the PBS control (percentage reduction) (Factor 11 protein; Day 17, plasma): 50% | Inhibition of Factor 11 protein relative to the PBS control (percentage reduction) (Factor 11 protein; Day 24, plasma): 61% | Inhibition of Factor 11 protein relative to the PBS control (percentage reduction) (Factor 11 protein; Day 31, plasma): 70% | Inhibition of Factor 11 protein relative to the PBS control (percentage reduction) (Factor 11 protein; Day 38, plasma): 73% | Inhibition of Factor 11 protein relative to the PBS control (percentage reduction) (Factor 11 protein; Day 45, plasma): 77% | Inhibition of Factor 11 protein relative to the PBS control (percentage reduction) (Factor 11 protein; Day 52, plasma): 80% | Inhibition of Factor 11 protein relative to the PBS control (percentage reduction) (Factor 11 protein; Day 55, plasma): 82% | Inhibition of Factor 11 protein relative to the PBS control (percentage reduction) (Factor 11 protein; Day −5, plasma): 0% | Inhibition of Factor 11 protein relative to the PBS control (percentage reduction) (Factor 11 protein; Day −14, plasma): 2%

ISIS 416850: MOE gapmer, nucleobases 1275 to 1318 of SEQ ID NO: 1 (Table 8) (antisense TGCACAGTTTCTGGCAGGCC; MOE gapmer, wing and gap sizes not given here)
Factor 11 protein levels in plasma (Factor 11 protein): time-dependent decrease in protein levels

ISIS 416858: MOE gapmer, nucleobases 1275 to 1318 of SEQ ID NO: 1 (Table 8) (antisense ACGGCATTGGTGCACAGTTT; MOE gapmer, wing and gap sizes not given here)
Factor 11 protein levels in plasma (Factor 11 protein): time-dependent decrease in protein levels
